# Calls of active or inactive are those of the source.
# Legend:
# Caspase-6 = biological target: T1, Caspase-6 (Homo sapiens, UniProt P55212); assay: inhibition of CASP6 peptide cleavage – biochemical, VEID-R110 fluorescence, cherry-pick, dose response (AID 720632)
# T1 sequence (P55212 whole entry): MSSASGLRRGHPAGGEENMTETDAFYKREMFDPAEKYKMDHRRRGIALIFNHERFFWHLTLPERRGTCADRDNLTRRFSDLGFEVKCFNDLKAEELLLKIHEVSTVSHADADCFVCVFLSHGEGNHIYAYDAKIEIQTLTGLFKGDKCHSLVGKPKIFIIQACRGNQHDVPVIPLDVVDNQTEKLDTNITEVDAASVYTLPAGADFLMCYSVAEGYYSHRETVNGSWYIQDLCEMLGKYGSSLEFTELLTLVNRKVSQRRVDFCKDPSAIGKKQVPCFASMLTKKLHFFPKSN
# [1] = Luminescence-based cell-based high throughput dose response assay to identify activators of the DAF-12 from the parasite S. stercoralis (ssDAF-12).; type: functional
# [2] = biological target: T2, Mannose-6-phosphate isomerase (Homo sapiens, UniProt P34949); assay: MPI inhibition at elevated mannose 6-phosphate – biochemical, fluorescence intensity, high mannose 6-phosphate, primary screen (AID 1220)
# T2 sequence (P34949 whole entry): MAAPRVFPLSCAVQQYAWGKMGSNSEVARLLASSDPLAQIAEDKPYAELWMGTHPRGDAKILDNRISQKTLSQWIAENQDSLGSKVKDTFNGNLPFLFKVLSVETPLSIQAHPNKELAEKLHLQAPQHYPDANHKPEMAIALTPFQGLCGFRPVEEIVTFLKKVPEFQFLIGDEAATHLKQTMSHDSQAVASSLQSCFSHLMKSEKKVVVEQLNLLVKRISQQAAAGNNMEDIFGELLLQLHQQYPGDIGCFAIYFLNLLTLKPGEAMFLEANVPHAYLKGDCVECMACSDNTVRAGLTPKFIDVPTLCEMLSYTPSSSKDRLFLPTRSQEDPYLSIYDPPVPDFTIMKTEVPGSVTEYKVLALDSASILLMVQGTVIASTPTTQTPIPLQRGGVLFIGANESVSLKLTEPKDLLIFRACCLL
# Protein RecA = biological target: T3, Protein RecA (Mycobacterium tuberculosis, UniProt P9WHJ3); assay: Fluorescence Cell-Free Homogeneous Dose Retest to Identify Inhibitors of RecA-Intein Splicing Activity. [Related pubchem assays (depositor defined):AID2097, AID2223, AID489010, AID492950]; type: functional
# T3 sequence (P9WHJ3 whole entry): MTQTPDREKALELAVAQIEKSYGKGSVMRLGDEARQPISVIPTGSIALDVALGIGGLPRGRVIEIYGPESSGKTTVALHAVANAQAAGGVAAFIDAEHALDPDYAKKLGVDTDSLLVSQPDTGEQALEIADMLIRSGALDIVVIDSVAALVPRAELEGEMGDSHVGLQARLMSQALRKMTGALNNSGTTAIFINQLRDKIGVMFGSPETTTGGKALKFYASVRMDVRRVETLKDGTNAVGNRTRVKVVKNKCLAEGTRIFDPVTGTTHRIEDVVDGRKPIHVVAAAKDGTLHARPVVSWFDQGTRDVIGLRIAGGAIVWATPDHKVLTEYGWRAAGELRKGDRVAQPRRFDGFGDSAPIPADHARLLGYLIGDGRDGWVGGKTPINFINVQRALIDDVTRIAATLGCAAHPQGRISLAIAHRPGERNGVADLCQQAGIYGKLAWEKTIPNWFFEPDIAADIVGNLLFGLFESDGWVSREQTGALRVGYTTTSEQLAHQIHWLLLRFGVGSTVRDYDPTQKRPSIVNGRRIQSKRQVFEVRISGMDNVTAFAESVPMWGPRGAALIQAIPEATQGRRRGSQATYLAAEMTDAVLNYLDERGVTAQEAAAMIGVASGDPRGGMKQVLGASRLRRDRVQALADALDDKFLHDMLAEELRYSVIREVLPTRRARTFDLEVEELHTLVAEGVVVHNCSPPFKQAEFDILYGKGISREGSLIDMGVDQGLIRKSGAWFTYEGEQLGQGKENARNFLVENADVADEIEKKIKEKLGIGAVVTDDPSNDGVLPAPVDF
# Caspase-9 = Caspase-9 (Homo sapiens, UniProt P55211); assay: inhibitors of purified CASP9 protease – biochemical, fluorescence, plate reader, cherry-picked samples, selectivity assay for caspase-6 inhibitor project, dose response (AID 743293)
# [3] = biological target: T4, Oxysterols receptor LXR-beta (Homo sapiens, UniProt P55055); assay: LXR agonists, Gal4 luciferase reporter, dose response, counter-screen for ssDAF-12 agonist project, cell-based, luminescence, HEK293, S. stercoralis campaign (AID 720737); type: functional; conditions: read-out: IC50 (the source's name)
# T4 sequence (P55055 whole entry): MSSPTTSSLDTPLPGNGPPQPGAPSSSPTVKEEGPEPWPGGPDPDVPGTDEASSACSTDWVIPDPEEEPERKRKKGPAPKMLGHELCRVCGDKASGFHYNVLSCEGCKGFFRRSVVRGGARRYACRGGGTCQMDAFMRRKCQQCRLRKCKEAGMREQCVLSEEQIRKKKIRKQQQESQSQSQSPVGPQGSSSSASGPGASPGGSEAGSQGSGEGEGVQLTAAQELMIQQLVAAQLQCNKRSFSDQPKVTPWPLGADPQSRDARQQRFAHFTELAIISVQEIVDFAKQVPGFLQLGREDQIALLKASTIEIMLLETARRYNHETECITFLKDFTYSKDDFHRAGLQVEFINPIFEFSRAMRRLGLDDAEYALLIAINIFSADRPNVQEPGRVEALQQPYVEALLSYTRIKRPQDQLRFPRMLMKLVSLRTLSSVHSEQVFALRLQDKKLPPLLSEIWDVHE
# Caspase-8 = Caspase-8 (Homo sapiens, UniProt Q14790); assay: inhibitors of purified CASP8 protease – biochemical, Z-IETD-R110 fluorescence, cherry-picked samples, selectivity assay for caspase-6 inhibitor project, dose response (AID 743294)
# [4] = biological target: T5, Replicative DNA helicase DnaB (Mycobacterium tuberculosis, UniProt P9WMR3); assay: DnaB intein splicing inhibitors, dose response, biochemical, cell-free fluorescence (AID 449749); type: functional
# T5 sequence (P9WMR3 whole entry): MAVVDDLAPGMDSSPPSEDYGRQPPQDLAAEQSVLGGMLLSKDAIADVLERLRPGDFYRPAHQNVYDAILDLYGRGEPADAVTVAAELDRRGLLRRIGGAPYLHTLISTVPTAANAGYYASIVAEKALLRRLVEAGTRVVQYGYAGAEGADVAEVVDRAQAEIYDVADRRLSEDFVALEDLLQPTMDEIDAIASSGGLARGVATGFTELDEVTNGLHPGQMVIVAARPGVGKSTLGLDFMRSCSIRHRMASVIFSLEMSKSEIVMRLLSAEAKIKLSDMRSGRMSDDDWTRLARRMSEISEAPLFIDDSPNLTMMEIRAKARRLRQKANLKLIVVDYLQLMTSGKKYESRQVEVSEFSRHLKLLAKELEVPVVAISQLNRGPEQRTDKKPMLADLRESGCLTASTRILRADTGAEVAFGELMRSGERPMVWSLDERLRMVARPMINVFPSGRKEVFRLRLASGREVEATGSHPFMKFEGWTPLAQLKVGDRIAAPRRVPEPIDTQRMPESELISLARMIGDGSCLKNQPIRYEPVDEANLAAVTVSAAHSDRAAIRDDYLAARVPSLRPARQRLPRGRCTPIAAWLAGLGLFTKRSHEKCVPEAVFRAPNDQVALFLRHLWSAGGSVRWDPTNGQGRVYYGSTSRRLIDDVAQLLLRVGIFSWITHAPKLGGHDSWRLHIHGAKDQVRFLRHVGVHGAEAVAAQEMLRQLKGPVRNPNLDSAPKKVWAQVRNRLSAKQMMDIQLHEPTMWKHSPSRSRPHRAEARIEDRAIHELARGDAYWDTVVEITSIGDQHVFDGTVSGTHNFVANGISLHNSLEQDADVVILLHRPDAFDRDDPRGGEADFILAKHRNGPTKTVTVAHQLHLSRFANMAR
# [5] = viability inhibitors of stage V gametocytes – luminescence, dose response (AID 1117278); type: functional, cell-based;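 further: gametocytes exposed to compound for 24 hours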
# [6] = viability loss in human Jurkat cells – cell-based, luminescence, cytotoxicity control for P. falciparum gametocyte viability project, dose response (AID 1117277); type: functional;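 further: potency reflects loss of cellular ATP meaning fewer viable cells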
# Cytochrome P450 2D6 = Cytochrome P450 2D6 (Homo sapiens, UniProt P10635);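 further: CYP2D6 member of a cytochrome P450 panel assay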
# [7] = biological target: Glutathione-S-transferase (Schistosoma japonicum, UniProt Q26513); assay: GST-antibody interaction or FRET quenching – biochemical, TR-FRET, artefact control for Vif-APOBEC3G degradation inhibitor project, dose response (AID 1117362); type: functional
# Cytochrome P450 2C19 = Cytochrome P450 2C19 (Homo sapiens, UniProt P33261); assay: Cytochrome panel assay with activity outcomes. Panel member name: p450-cyp2c19 Compounds with AC50 equal or less than 10 uM are considered active; type: functional
# Cytochrome P450 3A4 = Cytochrome P450 3A4 (Homo sapiens, UniProt P08684);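 further: CYP3A4 tested as one member of a cytochrome P450 panel screen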
# [8] = biological target: Voltage-gated inwardly rectifying potassium channel KCNH2 (Homo sapiens, UniProt Q12809); assay: concentration-dependent hERG rescue from blockers – cell-based, thallium flux, dose response (AID 2121); type: ADME
# [9] = IC50 of Artemis nuclease activity blockers – biochemical, fluorescence intensity, dose response (AID 720701); type: functional;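 further: Artemis endonuclease enzyme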
# Sequence of Cytochrome P450 2D6 (P10635 whole entry): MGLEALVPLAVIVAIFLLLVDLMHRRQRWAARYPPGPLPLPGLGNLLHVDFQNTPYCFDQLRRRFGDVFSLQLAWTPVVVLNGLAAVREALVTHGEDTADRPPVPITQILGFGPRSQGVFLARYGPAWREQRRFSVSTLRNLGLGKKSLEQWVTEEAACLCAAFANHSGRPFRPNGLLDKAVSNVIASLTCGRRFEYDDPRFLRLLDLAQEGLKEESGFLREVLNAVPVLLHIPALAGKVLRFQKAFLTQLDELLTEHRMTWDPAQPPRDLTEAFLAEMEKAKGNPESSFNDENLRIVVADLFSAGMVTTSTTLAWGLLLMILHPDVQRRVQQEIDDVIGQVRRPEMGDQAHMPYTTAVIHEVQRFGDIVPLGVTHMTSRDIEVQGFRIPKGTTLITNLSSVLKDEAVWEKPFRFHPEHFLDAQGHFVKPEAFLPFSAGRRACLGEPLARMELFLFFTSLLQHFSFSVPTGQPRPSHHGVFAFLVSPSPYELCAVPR
# Sequence of Cytochrome P450 2C19 (P33261 whole entry): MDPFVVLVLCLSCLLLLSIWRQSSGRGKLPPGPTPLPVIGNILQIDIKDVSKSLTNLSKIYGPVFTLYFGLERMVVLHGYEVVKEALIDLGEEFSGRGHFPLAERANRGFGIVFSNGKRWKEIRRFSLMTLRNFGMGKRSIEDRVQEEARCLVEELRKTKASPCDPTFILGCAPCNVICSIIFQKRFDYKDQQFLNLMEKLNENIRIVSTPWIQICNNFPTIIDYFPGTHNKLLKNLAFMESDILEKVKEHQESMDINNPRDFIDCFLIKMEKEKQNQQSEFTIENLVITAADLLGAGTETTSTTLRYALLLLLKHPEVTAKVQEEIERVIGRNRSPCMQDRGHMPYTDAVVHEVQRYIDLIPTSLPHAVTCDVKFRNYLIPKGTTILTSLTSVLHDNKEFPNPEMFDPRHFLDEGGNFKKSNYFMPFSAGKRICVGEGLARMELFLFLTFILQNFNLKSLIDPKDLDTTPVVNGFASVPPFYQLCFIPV
# Sequence of Cytochrome P450 3A4 (P08684 whole entry): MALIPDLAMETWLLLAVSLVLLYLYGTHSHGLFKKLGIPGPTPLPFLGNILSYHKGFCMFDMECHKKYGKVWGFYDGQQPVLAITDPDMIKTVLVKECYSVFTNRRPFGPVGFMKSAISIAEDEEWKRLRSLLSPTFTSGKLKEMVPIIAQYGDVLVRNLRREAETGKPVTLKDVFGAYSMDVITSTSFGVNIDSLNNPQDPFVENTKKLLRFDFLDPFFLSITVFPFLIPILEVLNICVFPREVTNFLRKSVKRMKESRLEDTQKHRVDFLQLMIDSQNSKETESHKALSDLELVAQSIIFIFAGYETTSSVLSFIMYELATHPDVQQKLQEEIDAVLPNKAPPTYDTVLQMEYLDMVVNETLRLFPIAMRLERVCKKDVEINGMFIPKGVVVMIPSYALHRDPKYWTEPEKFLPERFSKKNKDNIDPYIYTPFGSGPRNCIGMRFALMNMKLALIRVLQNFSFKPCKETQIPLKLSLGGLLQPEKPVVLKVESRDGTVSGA
# Sequence of Voltage-gated inwardly rectifying potassium channel KCNH2 (Q12809 whole entry): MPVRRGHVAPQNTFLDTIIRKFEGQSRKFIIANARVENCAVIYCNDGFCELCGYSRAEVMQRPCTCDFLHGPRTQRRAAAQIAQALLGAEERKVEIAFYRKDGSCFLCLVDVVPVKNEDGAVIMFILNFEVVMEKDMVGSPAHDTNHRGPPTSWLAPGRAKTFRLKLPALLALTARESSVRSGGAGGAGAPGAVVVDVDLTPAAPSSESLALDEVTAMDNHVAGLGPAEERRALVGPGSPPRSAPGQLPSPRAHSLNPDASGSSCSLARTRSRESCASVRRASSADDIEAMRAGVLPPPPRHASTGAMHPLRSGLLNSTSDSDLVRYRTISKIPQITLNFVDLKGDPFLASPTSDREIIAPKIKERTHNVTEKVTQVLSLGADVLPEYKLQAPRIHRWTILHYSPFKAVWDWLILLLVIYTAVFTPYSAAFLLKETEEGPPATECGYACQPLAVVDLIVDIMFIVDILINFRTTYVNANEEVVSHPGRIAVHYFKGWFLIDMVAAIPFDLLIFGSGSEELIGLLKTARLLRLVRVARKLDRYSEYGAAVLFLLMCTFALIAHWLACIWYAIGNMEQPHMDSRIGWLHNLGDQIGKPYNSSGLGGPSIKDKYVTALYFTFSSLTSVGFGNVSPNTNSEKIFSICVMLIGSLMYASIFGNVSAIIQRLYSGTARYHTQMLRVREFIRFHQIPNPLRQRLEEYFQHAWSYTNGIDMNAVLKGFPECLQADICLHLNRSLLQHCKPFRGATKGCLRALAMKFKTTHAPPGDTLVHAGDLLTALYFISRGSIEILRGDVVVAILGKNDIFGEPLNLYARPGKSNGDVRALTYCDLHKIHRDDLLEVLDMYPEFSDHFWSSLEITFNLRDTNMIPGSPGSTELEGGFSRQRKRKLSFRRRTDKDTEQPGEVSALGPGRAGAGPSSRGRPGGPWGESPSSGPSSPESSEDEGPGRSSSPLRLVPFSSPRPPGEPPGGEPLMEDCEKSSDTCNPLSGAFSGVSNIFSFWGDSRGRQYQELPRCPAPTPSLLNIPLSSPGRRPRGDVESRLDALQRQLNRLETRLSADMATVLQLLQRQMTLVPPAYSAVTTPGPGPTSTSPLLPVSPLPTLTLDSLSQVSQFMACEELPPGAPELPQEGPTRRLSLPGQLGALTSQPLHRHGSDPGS
# Sequence of Caspase-9 (P55211 1-315 limits assumed): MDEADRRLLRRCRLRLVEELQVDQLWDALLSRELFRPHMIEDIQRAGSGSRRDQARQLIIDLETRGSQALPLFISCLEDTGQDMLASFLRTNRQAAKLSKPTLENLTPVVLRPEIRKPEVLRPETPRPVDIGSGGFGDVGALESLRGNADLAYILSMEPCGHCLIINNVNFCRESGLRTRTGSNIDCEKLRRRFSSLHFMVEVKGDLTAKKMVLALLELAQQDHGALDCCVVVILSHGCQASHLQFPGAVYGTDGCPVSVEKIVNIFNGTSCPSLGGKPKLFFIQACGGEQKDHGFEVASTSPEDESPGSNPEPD
# Sequence of Caspase-9 (P55211 331-416 limits assumed): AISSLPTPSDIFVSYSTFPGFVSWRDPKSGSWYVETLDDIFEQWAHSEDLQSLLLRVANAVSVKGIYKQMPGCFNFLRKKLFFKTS
# Sequence of Glutathione-S-transferase (Q26513 whole entry): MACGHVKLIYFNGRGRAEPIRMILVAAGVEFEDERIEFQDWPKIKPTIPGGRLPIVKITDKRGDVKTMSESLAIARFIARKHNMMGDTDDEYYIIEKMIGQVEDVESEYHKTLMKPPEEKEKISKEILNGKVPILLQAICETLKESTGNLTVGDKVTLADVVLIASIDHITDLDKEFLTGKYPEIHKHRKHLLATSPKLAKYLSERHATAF
# Sequence of Caspase-8 (Q14790 217-374 limits assumed): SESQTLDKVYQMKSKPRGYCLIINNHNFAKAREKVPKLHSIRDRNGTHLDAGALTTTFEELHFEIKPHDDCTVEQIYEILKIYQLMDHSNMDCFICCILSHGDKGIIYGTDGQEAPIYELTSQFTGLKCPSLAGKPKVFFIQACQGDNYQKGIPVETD
# Sequence of Caspase-8 (Q14790 385-479 limits assumed): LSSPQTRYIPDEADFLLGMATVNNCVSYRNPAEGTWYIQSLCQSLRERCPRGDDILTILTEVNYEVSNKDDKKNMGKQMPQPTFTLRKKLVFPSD
smiles,measurement,setting,value
Nc1cc2nn(-c3ccccc3)nc2cc1Cl,AC50,Caspase-6,2 µM (active)
same,IC50,[1],> 67.5 µM (inactive)
same,IC50,[2],> 50 µM (not active)
same,EC50,Protein RecA,3.48 µM (active)
same,AC50,Caspase-9,29.9 µM (active)
same,EC50,[3],> 67.5 µM (inactive)
same,AC50,Caspase-8,12.7 µM (active)
same,AC50,[4],16.5 µM (active)
O=C(Nc1ccc(S(=O)(=O)N2CCCC2)cc1)C1CC(=O)N(c2ccccc2)C1 (stereo not drawn),IC50,[5],> 109 µM (inactive)
same,IC50,[6],> 83.3 µM (inactive)
C=CCn1c(C)c(C(C)=O)c(N2CCN(c3ccccc3)CC2)nc1=S,AC50,Cytochrome P450 2D6,22.4 µM (inconclusive)
same,IC50,[7],19.8 µM (active)
same,AC50,Cytochrome P450 2C19,5.62 µM (inconclusive)
same,AC50,Cytochrome P450 3A4,25.1 µM (inconclusive)
O=C(NC(=S)Nc1cc(C(F)(F)F)ccc1N1CCOCC1)c1ccco1,EC50,[8],4.72 µM (active)
CC(C)CSc1oc(-c2ccco2)nc1S(=O)(=O)c1ccccc1,IC50,[5],> 109 µM (inactive)
same,IC50,[6],> 83.3 µM (inactive)
Cc1cc(C)n(-c2nc(NCC(C)O)c3c4c(sc3n2)CCCC4)n1 (stereo not drawn),IC50,[9],15 µM (active)

# Reference: ChEMBL document CHEMBL1201862, “PubChem BioAssay data set” (2004)
